Test results taken from patent US7951530B2, “Cyclic maltosylmaltose, cyclic maltosymaltose-forming enzyme, their preparation and uses” (Kabushiki Kaisha Hayashibara Seibutsu Kagaku Kenkyujo, priority 2003, dated 2011).

Target: T1, Salivary α-amylase (Homo sapiens, UniProt P0DUB6)
T1 sequence (P0DUB6 16-511): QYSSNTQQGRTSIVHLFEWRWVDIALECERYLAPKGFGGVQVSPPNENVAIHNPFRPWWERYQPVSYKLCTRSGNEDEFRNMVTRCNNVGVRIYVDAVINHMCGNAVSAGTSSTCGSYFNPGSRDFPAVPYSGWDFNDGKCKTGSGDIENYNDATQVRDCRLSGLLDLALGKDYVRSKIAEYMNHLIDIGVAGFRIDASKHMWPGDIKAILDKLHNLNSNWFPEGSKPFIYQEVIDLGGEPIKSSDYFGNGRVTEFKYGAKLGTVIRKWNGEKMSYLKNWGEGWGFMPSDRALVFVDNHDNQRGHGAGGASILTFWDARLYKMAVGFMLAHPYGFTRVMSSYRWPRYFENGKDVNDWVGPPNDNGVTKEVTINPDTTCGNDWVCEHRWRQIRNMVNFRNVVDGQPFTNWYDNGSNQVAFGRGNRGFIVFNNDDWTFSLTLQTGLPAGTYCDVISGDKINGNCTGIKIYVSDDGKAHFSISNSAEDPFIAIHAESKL
Description: 43, 23-29 (1990), the digestibility of CMM by salivary α-amylase, artificial gastric juice, pancreas amylase, and small intestinal enzymes were investigated using the powdery hydrous crystalline CMM, obtained by the method in Experiment 14.

OC[C@H]1O[C@@H]2OC[C@H]3O[C@H](O[C@H]4[C@H](O)[C@@H](O)[C@@H](OC[C@H]5O[C@H](O[C@H]1[C@H](O)[C@H]2O)[C@H](O)[C@@H](O)[C@@H]5O)O[C@@H]4CO)[C@H](O)[C@@H](O)[C@@H]3O [CMM, cyclo{>6)-α-D-glucopyranosyl-(1>4)-α-D-glucopyranosyl-(1>6)-α-D-glucopyranosyl-(1>4)-α-D-glucopyranosyl-(1>}]
Degradation rate (%): 0%
